{"source": "patent US10493061B2", "about": "“Compositions and methods comprising 2-(acylamino)imidazoles” (priority 2014, dated 2019)", "key": {"CEM-TART cells": {"tested_on": "CEM-TART cells", "assay": "Cytotoxicity in CEM-TART cells", "assay_type": "cell-based"}, "Candida albicans": {"tested_on": "Candida albicans", "assay": "MIC determination in 96-well plates", "assay_type": "cell-based, Candida albicans (ATCC 90028)", "conditions": "read-out: MIC100"}, "[1]": {"tested_on": "Mycobacterium tuberculosis", "assay": "microbe, parasite or virus in culture", "conditions": "read-out: IC50 (anti-proliferative activity)", "method": "(§1) Library screening and MIC determination for the compounds were performed in 96-well plates as described previously in Koch et al. Planta Med 2009; 75(12): 1326-1330. Different media were used for respective test organisms. […] Mycobacterium tuberculosis H37Ra (ATCC 25177) was grown in 7H9 medium with ADC supplement (Remel, Lenexa, Kans.). Final well volume was 200 μL. […] The remaining wells received 1 μL of test compound in DMSO, in triplicates for MIC determination. Incubation was overnight at 37° C. for other organisms except for M. tuberculosis which was incubated for 5 days. B. subtilis and M. tuberculosis received 11 μL of sterile 5 mg/mL 3-(4,5-dimethylthiazol-2-yl)-2,5-diphenyltetrazolium bromide (MTT) in PBS on day 1 or 4, respectively. Formazan precipitate was dissolved with 50 μL solubilization reagent (50% DMF, 5% SDS, 45% water). Plates were evaluated on a Muliskan FC plate reader (Fisher Scientific, Waltham, Mass.)."}, "A. baumanii": {"tested_on": "A. baumanii", "assay": "MIC determination in 96-well plates", "assay_type": "cell-based, Acinetobacter baumannii (ATCC 19606)", "conditions": "Acinetobacter baumannii; read-out: MIC100"}, "[2]": {"conditions": "in vivo, mouse models (Ireland et al.); cited from earlier work"}, "[3]": {"assay": "ITC binding of naamidine A to ZnCl2", "conditions": "ITC with significant amounts of MeOH; reasonable approximation", "source_text": "While this is believed to be a reasonable approximation of this binding, these ITC experiments were convoluted by solubility issues of the different species, requiring significant amounts of MeOH which can affect the accuracy of ITC experiments. Fisicaro et al. Thermochim. Acta 2014, 586 (0), 40-44. With a Zn^2+ binding affinity in the high nanomolar range, NA's phenotypic activity is likely a result of both kinase modulation and zinc binding."}, "MCF-7s": {"tested_on": "MCF-7s", "assay": "Cell viability of MCF-7 cells treated with ZNA and ZNA analogues", "assay_type": "cell-based, human", "conditions": "ZNA analogues and metabolite; assay not further specified", "source_text": "Of the analogues evaluated, those with more electron-donating groups at C5 or on the N^2-carbonyl seem to improve activity."}, "[4]": {"assay": "Zn^2+ binding, (ZNA)2Zn dimer formation (MeOH precipitation, X-ray, NMR)", "source_text": "The structure of the solid product was confirmed by X-ray crystallography (FIG. 14B). […] HCl in D2O protonates the ligand off the metal center, as evidenced by the disappearance of the diastereotopic benzyllic AB quartet in the dimer and its appearance as a singlet in the monomer. […] Of the analogues evaluated, those with more electron-donating groups at C5 or on the N^2-carbonyl seem to improve activity."}, "in vivo": {"assay": "in vivo", "set-up": "species or system Sprague-Dawley rats", "conditions": "female, Sprague-Dawley, rat", "experimental": "ZNA has promising pkpd parameters. An initial pharmacokinetic (PK) analysis on ZNA was performed at 1 mg/kg IV, 5 mg/kg PO. ZNA was dosed to female Sprague-Dawley rats at either 1 mg/kg intravenously or at 5 mg/kg orally. Plasma was collected with K2EDTA and stored at −80° C. until analysis. Quantification of ZNA was performed by protein precipitation followed by ultra-high performance liquid chromatography (UHPLC) interfaced to an electrospray ionization quadrapole time-of-flight mass spectrometer (ESI-QTOF). Plasma concentrations were determined from a calibration curve using […]. The values determined were fit with Phoenix WinNonlin and pharmacokinetic values reported.\nThe plasma concentrations for ZNA were very low, and most samples fell below the lower limit of quantification for the assay (10.0 ng/mL). This limited the data available for fitting in WinNonlin. To increase the amount of data for fitting, values from below the curve were extrapolated to approximately 40% of the LLOQ and were used for PK fitting. The percent of the area extrapolated in the PO PK animals ranged from 34-70% which was considered quite high. […] The oral bioavailability determined was approximately 6%. This value is considered a rough estimate based upon the area extrapolated and the unusually high clearance determined. […] Possible explanations for the high clearance are binding of compound to red blood cells, extremely rapid clearance that requires collection of earlier time points to establish a more accurate CO, and extrahepatic elimination."}, "[5]": {"tested_on": "Mycobacterium tuberculosis", "conditions": "read-out: IC50 (anti-proliferative activity); MTT assay", "method": "as §1"}}, "note": "“And” between values parts separate entries of the source, which are not always exact repeats. Equal entries are not always repeated. Where two headings read alike, the source gives them in different places."}
{"smiles": "COc1ccc(Cc2nc(NC3=NC(=O)N(C)C3=O)n(C)c2Cc2ccc(O)cc2)cc1", "note": "[Naamidine A]", "values": [{"measurement": "selectivity ratio", "setting": "CEM-TART cells; CEM-TART IC50 relative to M. tuberculosis IC50", "result": 37}, {"measurement": "IC50", "setting": "CEM-TART cells; CEM-TART cells", "result": 34.8, "unit": "µM"}, {"measurement": "MIC", "setting": "Candida albicans", "result": 0.78, "unit": "µM"}, {"measurement": "IC50", "setting": "[1]", "result": "940 nM and 0.41 µg/mL"}, {"measurement": "MIC", "setting": "A. baumanii", "result": 79, "unit": "µM"}, {"measurement": "maximum tolerated dose", "setting": "[2]", "result": 25, "unit": "mg/kg"}, {"measurement": "Kd", "setting": "[3]", "result": "~0.35", "unit": "µM"}]}
{"smiles": "COc1ccc(-c2c(Cc3ccccc3)nc(N(C)C(=O)c3ccccc3F)n2C)cc1", "note": "[ZNA-17, N-(4-Benzyl-5-(4-methoxyphenyl)-1-methyl-1H-imidazol-2-yl)-2-fluoro-N-methylbenzamide]", "values": [{"measurement": "activity", "setting": "MCF-7s", "result": "not active"}, {"measurement": "Zn^2+ binding", "setting": "[4]", "result": "incapable of binding Zn^2+"}]}
{"smiles": "Cn1c(-c2ccc(O)cc2)c(Cc2ccccc2)[nH]/c1=N\\C(=O)c1ccccc1F", "note": "[ZNA-18, (E)-N-(4-Benzyl-5-(4-hydroxyphenyl)-1-methyl-1H-imidazol-2(3H)-ylidene)-2-fluorobenzamide]", "values": [{"measurement": "activity", "setting": "MCF-7s", "result": "active"}, {"measurement": "ratio of major circulating metabolite to ZNA", "setting": "in vivo", "result": "1:1"}]}
{"smiles": "COc1ccc(-c2c3cc(OC)c(OC)cc3cc3c2nc(N)n3C)cc1", "note": "[kealiinine B, Kealiinine B]", "values": [{"measurement": "IC50", "setting": "[5]", "result": 8.9, "unit": "µM"}]}
{"smiles": "COc1ccc(-c2c3nc(N)n(C)c3cc3cc(OC)c(OC)c(OC)c23)cc1", "note": "[kealiinine C, Kealiinine C]", "values": [{"measurement": "IC50", "setting": "[5]", "result": 42, "unit": "µM"}]}
